Entries after “also recorded” stand apart in the source; their conditions may differ.
Assays:
[1] = tested on: ATG5; assay: ATG5 immunostaining in CC-HS treated iRPE; assay type: cell-based, human; details: co-treatment with CC-HS
[2] = tested on: iRPE monolayer; assay: Transepithelial resistance (TER) of CC-HS treated iRPE monolayer; assay type: cell-based, human; details: co-treatment with CC-HS
Excerpt: To further dissect the role of C5aR1 and C3aR1 signaling in inducing AMD cellular phenotypes in iRPE cells, a depleted sera and receptor blocker strategy was employed.

[3] = tested on: rat RPE; assay: Rat model of RPE dedifferentiation (micropulse laser lesion, sub-retinal injection); assay type: in vivo
Procedure: To test the in vivo activity of these drugs, a rat model of RPE dedifferentiation was developed. A 0.5 mm area of rat RPE was damaged using a micropulse laser. RPE cells in the lasered area are ablated causing the cells surrounding the laser lesion to undergo dedifferentiation due to the loss of cell-cell contacts. […] Effects of drugs on rat RPE dedifferentiation was tested by injecting either of the two drugs in the sub-retinal space of the rat eye at the time of laser injury.

[4] = tested on: iRPE cells; assay: Nile red staining of lipid deposits in CC-HS treated iRPE; assay type: cell-based, human; details: co-treatment with CC-HS, vs CC-HS and vehicle
[5] = tested on: FIBULIN 3; assay: FIBULIN 3 expression in CC-HS treated iRPE; assay type: cell-based, human; details: co-treatment with CC-HS, vs CC-HS and vehicle
[6] = tested on: iRPE cells; assay: Cell area and hexagonality of CC-HS treated iRPE; assay type: cell-based, human; details: co-treatment with CC-HS
[7] = tested on: iRPE cells; assay: Proteotoxic high throughput screen (LOPAC) and follow up screen: survival of A23187 treated iRPE; assay type: cell-based, human; details: for cytoprotective activity in follow up screen: seven-point dose curve, A23187 2.5, 5, 10 μM, two iRPE samples
Procedure: 10 μM concentration of A23187 was selected for the drug screening, because it provided a bigger margin for cell death rescue. […] Drug treatment along with the stressor, 10 μM A23187 were added on to iRPE cells matured in 384-well plates and cell death was scored 48 hours later by ATP release using the CellTitrGlo assay.
To distinguish false positives from the real signal, a follow up screen on all of the 45 drugs using iRPE derived from two different iPSC lines was performed. The follow up screen was performed at three different A23187 concentrations (2.5, 5, 10 μM) and with seven different concentrations of drugs ranging from 10 nM-1 mM (FIG. 13D-F). […] Overall, the HTS screen provided two drugs for testing in the in vitro AMD model.

[8] = tested on: iRPE cells; assay: Phagocytosis of photoreceptor outer segments by CC-HS treated iRPE; assay type: cell-based, human; details: co-treatment with CC-HS
Excerpt: Lastly, it was checked if the drugs rescued mature RPE phenotype and RPE functionality. TER of samples co-treated with drugs and CC-HS was 2-3× higher (p<10^−15) as compared to samples treated with vehicle+CC-HS was similar to TER values of CI-HS treated cells (FIG. 7G). Similarly, the addition of both drugs partially rescued (up to 2×; p<10^−15) the ability of the RPE cells to phagocytose photoreceptor outer segments, as compared to cells treated with CC-HS and the vehicle (FIG. 7H). […] The in vitro and in vivo data provides sufficient evidence to support the potential use of these drugs to delay AMD disease initiation and slow its progression.

[9] = tested on: CC-HS treated iRPE cells; assay: RNAseq of iRPE co-treated with CC-HS and drugs; assay type: cell-based, human; details: listed as L, 745,870
Excerpt: The key hallmark of AMD cellular phenotypes seen in cadaver eyes and observed in the in vitro model are the sub-RPE lipid and protein rich deposits, increased expression of drusen markers, and the loss of epithelial phenotype and RPE functionality. […] Similar results were obtained by RNAseq of iRPE treated with just CC-HS plus the vehicle or co-treated with CC-HS and the two drugs. Both drugs were able to suppress (4-10 fold) the expression of dedifferentiation markers in CC-HS treated iRPE cells (FIG. 13H).

[10] = tested on: Stargardt iRPE; assay: Ceramide levels in POS fed Stargardt iRPE; assay type: cell-based, human
[11] = tested on: L-ORD patient iPSC-RPE; assay: Expression of EMT-related genes in POS-fed L-ORD patient iPSC-RPE; assay type: cell-based, human
Excerpt: POS feeding for 7-days also altered the expression profiles of 85 EMT-related genes in L-ORD patient iPSC-RPE (FIG. 18g).

[12] = tested on: Abca4−/− mice; assay: Abca4−/− mouse model, oral metformin, RPE/choroid flat-mount bodipy lipid stain
[13] = tested on: patients with AMD; assay: Retrospective cohort study of AMD patients concurrently using metformin; assay type: in vivo, human; details: patients ages 50-59, with metformin (n=16); 56 without (n=157)
Procedure: To determine whether there is clinical evidence that metformin could be beneficial in the treatment of AMD, a retrospective cohort study of patients presenting to Kaiser Permanante Medical with AMD was performed to test whether concurrent use of metformin by individuals affected diagnosis.
To determine whether there is clinical evidence that metformin could be beneficial in the treatment of AMD a retrospective cohort study was performed of patients presenting to Kaiser Permanante Medical with AMD to test whether concurrent use of metformin by individuals affected diagnosis.

[14] = tested on: iPSC-RPE; assay: APOE deposition in POS-fed iPSC-RPE (integrated density); assay type: cell-based, human; details: for integrated density of APOE signal, apical / integrated density of APOE signal, basal: 7-days POS feeding
Procedure: (§1) Patient iPSC-RPE were treated daily beginning with the first day of POS feeding with 3 mM metformin (Fan et al., 2015; Kim et al., 2011).
White arrow indicates basal increase in APOE deposits reminiscent of APOE-rich drusen deposits in AMD (Johnson et al., 2011). […] Image J was used to draw a rectangular region of interest around the apical and basal APOE-positive staining to quantify the localized mean integrated intensity and the data is summarized in FIG. 18d.

[15] = tested on: iPSC-RPE; assay: VEGF secretion ELISA under normoxia; assay type: cell-based, human; details: L-ORD patients, metformin 3 mM for 1½ to 2 weeks
Excerpt: Polarized secretion of cytokines by the RPE is a hallmark of their mature and differentiated state. Under conditions that promote epithelial to mesenchymal transition (EMT), RPE lose their morphology and their secretion becomes mispolarized. Dedifferentiation of the RPE is a frequently proposed mechanism in retinal degenerations such as AMD. Typically VEGF is primarily secreted basally by the RPE. In L-ORD patients, the polarity of VEGF secretion is lost as assessed by ELISA.

[16] = tested on: AMPK signaling pathway; assay: Gene expression of AMPK signaling pathway in L-ORD patient RPE; assay type: cell-based, human; details: metformin 3 mM for 1½ to 2 weeks
Procedure: Treatment with metformin (3 mM) for 1½ to 2 weeks results in further decrease in some genes but an upregulation in others. […] In the RPE, the PEDF-R plays an important role in fatty acid metabolism.

[17] = tested on: AMPK; assay: Phospho-AMPK ELISA in iPSC-RPE of L-ORD patients and unaffected siblings; assay type: cell-based, human; details: L-ORD patient iPSC-RPE, 3 mM metformin, 1½-2 weeks
Procedure: Thus, in FIG. 16b iPSC-RPE were incubated with recombinant CTRP5 globular form (0.2 μg/mL gCTRP5) for 30 min in the presence (+) and absence (−) of serum to evaluate its role in AMPK signaling.
To better elucidate the ADIPOR1-CTRP5 (receptor-ligand) interaction, […] a ligand dose response curve was performed (in serum free media) by exogenously adding increasing concentrations of recombinant full length CTRP5 (FIG. 16c).
AMPK is a sensitive indicator of the cell energy status and is canonically activated by the levels of AMP or ATP (Hardie and Lin, 2017). Therefore, the AMPK activity (in serum free media) of sibling and patient iPSC-RPE under conditions (increased AMP:ATP ratio) known to stimulate AMPK phosphorylation was characterized (FIG. 16d). iPSC-RPE were incubated in serum deprived media for 5 hours (Park et al., 2009) followed by 30 mins exposure to AICAR (an AMP analogue) or BAM15 (a mitochondrial uncoupler to reduce ATP production).
(§2) Metformin treatment consisted of 3 mM metformin added to the apical and basal media for 1½- 2 weeks.

[18] = Mass-spectrometry analysis of metformin in eyes and plasma of treated animals; assay type: in vivo, mouse; details: oral dosing, data not shown
[19] = tested on: iPSC-RPE; assay: Cell area of POS-fed iPSC-RPE (ZO-1 staining, REShAPE); assay type: cell-based, human
Excerpt: Accumulating evidence implicates disrupted lipid metabolism as a common pathogenic mechanism in a host of diseases including AMD (Ban et al., 2018; Xu et al., 2018). These metabolic defects are linked to long term health of RPE cells. To determine the consequence of PEDF-R deficiency in RPE cells, L-ORD iPSC-RPE and unaffected siblings were subjected to 7-day photoreceptor outersegment (POS) feeding to exacerbate the high fat-induced epithelial impairment. Concomitantly, it was investigated whether the lipid-lowering effects of metformin, an anti-diabetic drug (Schneider et al., 1990), could reverse RPE dedifferentiation and loss of polarity. Cell size, a key morphological indicator of RPE polarity, was evaluated by staining for ZO-1 (green) to identify cell borders (FIG. 18a) and employing automated image analysis algorithms in REShAPE (a cloud-computing based cell morphometry analyzer) to perform morphometric analysis of RPE cells.
as §1

[20] = tested on: L-ORD patient RPE; assay: Apical beta-hydroxybutyrate (B-hB) secretion by RPE; assay type: cell-based, human
Procedure: The inventors have hypothesized that increasing fatty acid oxidation and ketone body formation (B-hB) may lead to decreased lipid accumulation in the sub retinal space.
as §2

[21] = tested on: iPSC-RPE; assay: VEGF secretion ELISA under hypoxic conditions; assay type: cell-based, human; details: for VEGF secretion, apical (Ap) / VEGF secretion, basal (Ba): hypoxic conditions (6h)
Procedure: Hypoxic stress (3% 02, 6h) was employed to determine how this perturbation regulates VEGF secretion in L-ORD patient iPSC-RPE.

[22] = metformin treated L-ORD patients
[23] = metformin treated unaffected siblings
[24] = L-ORD patient RPE, prior metformin 2 weeks
[25] = untreated or metformin treated unaffected siblings

Clc1ccc(N2CCN(Cc3c[nH]c4ncccc34)CC2)cc1 [L-745,870]
reduced expression of autophagy protein, ATG5 [1]: does not lead to | monolayer TER [2]: increased monolayer TER | area of RPE cells at the borders of laser lesion in rat eyes [3]: reduced area | hexagonality of RPE cells at the borders of laser lesion in rat eyes [3]: improved hexagonality | area of RPE cells around the laser lesion ([3]; sub-retinal injection at the time of laser injury): 439.55 um2 | amount of Nile red positive lipid droplets [4]: reduced | expression of FIBULIN 3 [5]: reduced | expression of FIBULIN 3 ([5]; listed as L745,870): four-fold lower | average cell area [6]: 162.24 um2 | cell area of CC-HS treated iRPE cells [6]: reduced area | hexagonality of CC-HS treated iRPE cells [6]: improved hexagonality | hexagonality score ([6]; 10 represents a perfect hexagon): 8.25 | IC50 ([7]; cell survival of A23187 treated iRPE, read-out: IC50 dose from seven-point dose response curve): 6 µM | cytoprotective activity in follow up screen [7]: reproducible cell survival; also recorded: linear response the seven-point dose curve and reproducibility between two different iRPE samples | cytoprotective activity in follow up screen ([7]; listed as L, 745,870): reproducible cytoprotective activity | phagocytic ability [8]: increased | gene expression changes induced by CC-HS treatment [9]: reversed gene expression changes induced by CC-HS treatment; also recorded: reversal of the upregulation of NF-KB pathway genes

CN(C)C(=N)N=C(N)N [metformin]
reduction of ceramide levels vs vehicle ([10]; 3 mM metformin, wild type POS for 6 consecutive days): 3-4 fold | ceramide accumulation ([10]; POS-Fed Stargardt iRPE treated with metformin): dramatic reduction | number of EMT genes downregulated ([11]; L-ORD patient iPSC-RPE treated with metformin, <4-fold as printed): 42 genes | expression of EMT related genes ([11]; metformin during 7-days POS feeding): suppresses the expression of EMT related genes | hypoglycemia in treated mice ([12]; oral metformin 400 or 800 mg/day): do not lead to hypoglycemia | lipid levels / deposits in RPE/choroid flat-mount ([12]; oral metformin 400 or 800 mg/day for three months): drastically reduced lipid levels; also recorded: reduced deposits | age of onset of nonexudative age-related macular degeneration [13]: 58.5 years of age | apical and basal APOE deposition ([14]; L-ORD patient RPE treated with metformin during POS feeding): ameliorate the accumulation of APOE-containing basal deposits; also recorded: redistribution of the relative proportions of apical and basal APOE deposition | integrated density of APOE signal, apical [14, 22]: 79.30±37.51 | integrated density of APOE signal, basal [14, 22]: 13.58±4.58 | integrated density of APOE signal, apical [14, 23]: 119.98±20.36 | integrated density of APOE signal, basal [14, 23]: 23.55±6.17 | polarized VEGF secretion [15]: rescue of polarized VEGF secretion | polarized VEGF secretion ([15]; listed as Metformin): rescues mispolarized secretion of VEGF | PNPLA2 (PEDF-R) expression [16]: significant increase | sensitivity of p-AMPK to changes in the AMP:ATP ratio / AICAR [17]: restored sensitivity to AICAR; also recorded: regained sensitivity to AICAR; also recorded: restores the sensitivity | amount of metformin in RPE/choroid, retina, and plasma [18]: comparable amount | POS stress-induced enlargement of patient iPSC-RPE ([19]; 3 mM metformin daily from first day of POS feeding): largely prevented the POS stress-induced enlargement | cell area ([19]; L-ORD patient iPSC-RPE, 3 mM metformin during 7 days POS feeding): 117.92±0.96 um | cell area ([19]; unaffected siblings, metformin during 7 days POS feeding): 93.14±1.56 um | increase in apical B-hB secretion ([20]; L-ORD patient RPE, 3 mM metformin 1½-2 weeks): 25% | beta-hydroxybutyrate apical secretion ([20]; metformin treatment): increased beta-hydroxybutyrate apical secretion | hypoxia-induced apical VEGF secretion ([21]; 1½ week pretreatment with metformin): alleviated the hypoxia-induced apical VEGF secretion | VEGF secretion, apical (Ap) [21, 24]: 0.59±0.09 | VEGF secretion, basal (Ba) [21, 24]: 1.8±0.24 | VEGF secretion, apical (Ap) [21, 25]: 0.98±0.16 | VEGF secretion, basal (Ba) [21, 25]: 1.64±0.33 | rescue of mispolarized VEGF secretion ([21]; hypoxic stress (3% O2, 6h), metformin for 24h, data not shown): insufficient to rescue this phenotype
